Data on 14 compounds can be found in patent US8822517B2, “Arylosulfonamides for the treatment of CNS diseases” (Adamed SP. Z O.O., priority 2010, dated 2014).

Assay [1] has as its target T1, serotonine transporter (SERT) receptor (Homo sapiens, UniProt P31645).
T1 construct: expressed in transfected cells; host or cells: CHO cells
The experiment in a line: Binding assay SERT (h), [3H]imipramine, CHO cells. The settings on record: read-out: SERT [%]. A digest of the protocol:
(§1)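 Detection relied on scintillation counting of bound ligand. Compounds at 1×10^−6 M were evaluated against specific binding, i.e. total binding corrected for the nonspecific fraction seen with excess unlabelled ligand.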

In the next assay the test system is adrenergic α1 receptor. The experiment in a line: Binding assay α1 (non-selective), [3H]prazosin, rat cerebral cortex. Particulars: percent inhibition of control specific binding; compounds tested at 1×10^−6 M. A digest of the protocol: as §1
Another assay concerns the target dopaminergic D3 receptor (Homo sapiens, UniProt P35462). The experiment in a line: Binding assay D3 (h), [3H]methyl-spiperone, CHO cells. More on the design: expressed in transfected cells; host or cells: CHO cells. Particulars: read-out: D3 [%]. A digest of the protocol: as §1
The target in assay [2] is serotoninergic 5-HT6 receptor (Homo sapiens, UniProt P50406). The experiment in a line: Binding assay 5-HT6 (h), [3H]LSD, CHO cells. The settings on record: read-out: 5-HT6. More on the design: expressed in transfected cells; host or cells: CHO cells. A digest of the protocol: as §1
The target in assay [3] is serotoninergic 5-HT7 receptor (Homo sapiens, UniProt P34969). In words: Binding assay 5-HT7 (h), [3H]LSD, CHO cells. Further details: expressed in transfected cells; host or cells: CHO cells. The settings on record: read-out: 5-HT7. A digest of the protocol:
as §1

Another assay addresses dopaminergic D2 receptor (Homo sapiens, UniProt P14416). In words: Binding assay D2S (h), [3H]methyl-spiperone, HEK-293 cells. Further details: expressed in transfected cells; host or cells: HEK-293 cells. The settings on record: read-out: D2 [%]. A digest of the protocol: as §1
The target of assay [4] is T2, serotoninergic 5-HT1A receptor (Homo sapiens, UniProt P08908).
T2 sequence (P08908 1-422): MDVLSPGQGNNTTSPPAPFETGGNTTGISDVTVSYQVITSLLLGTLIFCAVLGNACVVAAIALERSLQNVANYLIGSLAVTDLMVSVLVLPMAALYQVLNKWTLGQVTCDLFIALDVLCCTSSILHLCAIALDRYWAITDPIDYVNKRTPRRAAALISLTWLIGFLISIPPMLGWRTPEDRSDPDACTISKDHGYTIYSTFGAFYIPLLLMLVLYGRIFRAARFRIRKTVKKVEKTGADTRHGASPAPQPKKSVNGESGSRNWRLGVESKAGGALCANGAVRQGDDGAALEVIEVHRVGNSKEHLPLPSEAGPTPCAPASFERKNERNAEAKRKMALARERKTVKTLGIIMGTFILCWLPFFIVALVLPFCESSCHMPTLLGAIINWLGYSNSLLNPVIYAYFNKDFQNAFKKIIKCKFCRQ
In words: Binding assay 5-HT1A (h), [3H]8-OH-DPAT, HEK-293 cells. Further details: expressed in transfected cells; host or cells: HEK-293 cells. Particulars: read-out: 5-HT1A. A digest of the protocol: as §1

The target in assay [5] is serotoninergic 5-HT2A receptor (Homo sapiens, UniProt P28223). In words: Binding assay 5-HT2A (h), [3H]ketanserin, HEK-293 cells. More on the design: expressed in transfected cells; host or cells: HEK-293 cells. Particulars: read-out: 5-HT2A. A digest of the protocol: as §1

Each structure is given as a SMILES string.

T1 sequence (P31645 whole entry): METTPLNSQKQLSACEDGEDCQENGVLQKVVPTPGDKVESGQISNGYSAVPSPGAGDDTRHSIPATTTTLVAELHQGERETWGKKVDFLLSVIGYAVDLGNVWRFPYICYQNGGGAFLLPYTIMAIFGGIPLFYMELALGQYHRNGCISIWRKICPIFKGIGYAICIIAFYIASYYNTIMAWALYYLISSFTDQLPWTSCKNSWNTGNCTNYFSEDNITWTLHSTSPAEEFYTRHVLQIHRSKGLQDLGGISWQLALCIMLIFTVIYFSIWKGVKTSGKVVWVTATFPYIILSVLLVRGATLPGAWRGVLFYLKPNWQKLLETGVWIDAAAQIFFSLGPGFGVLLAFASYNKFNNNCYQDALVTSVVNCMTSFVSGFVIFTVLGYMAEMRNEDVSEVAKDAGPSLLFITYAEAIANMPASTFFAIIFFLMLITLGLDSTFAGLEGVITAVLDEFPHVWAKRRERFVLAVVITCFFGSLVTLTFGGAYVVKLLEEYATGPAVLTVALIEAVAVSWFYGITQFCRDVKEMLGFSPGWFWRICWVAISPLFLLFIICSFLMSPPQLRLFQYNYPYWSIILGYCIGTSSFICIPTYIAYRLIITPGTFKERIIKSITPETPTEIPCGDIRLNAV
dopaminergic D3 receptor, sequence (P35462 whole entry): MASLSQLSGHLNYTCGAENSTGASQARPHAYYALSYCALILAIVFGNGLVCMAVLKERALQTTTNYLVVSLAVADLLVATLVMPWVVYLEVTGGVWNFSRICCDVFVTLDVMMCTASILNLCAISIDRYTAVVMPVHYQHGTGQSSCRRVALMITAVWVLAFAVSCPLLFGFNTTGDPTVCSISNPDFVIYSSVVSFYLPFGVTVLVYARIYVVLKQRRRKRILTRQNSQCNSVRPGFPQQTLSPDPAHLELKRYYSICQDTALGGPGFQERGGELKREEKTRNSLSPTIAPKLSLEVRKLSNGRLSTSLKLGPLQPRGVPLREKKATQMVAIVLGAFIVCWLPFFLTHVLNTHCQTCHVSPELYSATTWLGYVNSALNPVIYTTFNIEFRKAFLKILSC
serotoninergic 5-HT2A receptor, sequence (P28223 whole entry): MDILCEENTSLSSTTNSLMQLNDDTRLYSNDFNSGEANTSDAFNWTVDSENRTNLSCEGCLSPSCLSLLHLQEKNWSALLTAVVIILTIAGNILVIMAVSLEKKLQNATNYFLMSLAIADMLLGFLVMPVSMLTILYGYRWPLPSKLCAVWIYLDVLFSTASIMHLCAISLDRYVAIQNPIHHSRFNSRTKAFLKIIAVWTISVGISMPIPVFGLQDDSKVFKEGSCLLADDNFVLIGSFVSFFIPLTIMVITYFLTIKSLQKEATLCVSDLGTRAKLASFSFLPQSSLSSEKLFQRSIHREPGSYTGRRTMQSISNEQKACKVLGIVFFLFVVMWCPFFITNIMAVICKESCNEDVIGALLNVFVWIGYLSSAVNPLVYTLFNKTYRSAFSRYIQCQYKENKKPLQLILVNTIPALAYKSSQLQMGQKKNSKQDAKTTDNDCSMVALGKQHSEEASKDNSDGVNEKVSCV
dopaminergic D2 receptor, sequence (P14416 1-414 isoform P14416-2): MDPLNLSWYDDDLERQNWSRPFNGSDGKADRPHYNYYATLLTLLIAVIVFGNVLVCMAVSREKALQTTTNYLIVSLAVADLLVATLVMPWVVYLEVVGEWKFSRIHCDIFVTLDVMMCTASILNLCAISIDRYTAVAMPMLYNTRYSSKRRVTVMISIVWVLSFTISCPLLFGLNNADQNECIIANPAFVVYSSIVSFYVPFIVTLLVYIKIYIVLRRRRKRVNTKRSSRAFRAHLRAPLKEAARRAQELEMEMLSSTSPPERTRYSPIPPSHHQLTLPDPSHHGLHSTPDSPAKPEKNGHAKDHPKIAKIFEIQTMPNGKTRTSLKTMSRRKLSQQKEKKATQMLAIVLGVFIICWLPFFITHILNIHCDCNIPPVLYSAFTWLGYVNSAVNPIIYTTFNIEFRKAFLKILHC
serotoninergic 5-HT7 receptor, sequence (P34969 whole entry): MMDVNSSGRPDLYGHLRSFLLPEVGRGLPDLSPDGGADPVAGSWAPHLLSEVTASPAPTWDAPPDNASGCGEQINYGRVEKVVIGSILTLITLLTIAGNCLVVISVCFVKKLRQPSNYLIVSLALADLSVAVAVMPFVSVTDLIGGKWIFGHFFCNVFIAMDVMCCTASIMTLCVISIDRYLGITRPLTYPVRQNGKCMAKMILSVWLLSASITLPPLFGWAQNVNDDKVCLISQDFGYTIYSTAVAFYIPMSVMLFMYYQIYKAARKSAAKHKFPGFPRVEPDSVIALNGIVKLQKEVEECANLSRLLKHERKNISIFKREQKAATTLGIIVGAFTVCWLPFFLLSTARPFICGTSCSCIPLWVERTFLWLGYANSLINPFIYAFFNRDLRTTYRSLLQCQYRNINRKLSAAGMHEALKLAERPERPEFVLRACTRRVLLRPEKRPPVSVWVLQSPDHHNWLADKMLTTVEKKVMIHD
serotoninergic 5-HT6 receptor, sequence (P50406 whole entry): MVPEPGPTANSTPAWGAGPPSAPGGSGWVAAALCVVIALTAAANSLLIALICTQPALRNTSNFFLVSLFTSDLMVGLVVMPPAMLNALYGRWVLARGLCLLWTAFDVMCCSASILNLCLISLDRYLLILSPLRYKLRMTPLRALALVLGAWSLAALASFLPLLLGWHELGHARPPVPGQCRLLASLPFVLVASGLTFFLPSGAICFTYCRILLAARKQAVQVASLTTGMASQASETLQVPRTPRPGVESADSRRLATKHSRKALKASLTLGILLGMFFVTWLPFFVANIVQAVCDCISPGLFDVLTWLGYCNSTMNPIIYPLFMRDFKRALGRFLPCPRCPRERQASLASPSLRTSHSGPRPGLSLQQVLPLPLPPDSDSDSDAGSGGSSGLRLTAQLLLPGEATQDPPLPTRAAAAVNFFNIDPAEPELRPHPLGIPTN

`O=S(=O)(NCCCCN1CCN(c2cccc3c2OCCO3)CC1)c1cccc(F)c1` [Compound 388, N-[4-[4-(2,3-Dihydro-1,4-benzodioxin-5-yl)piperazin-1-yl]butyl]-3-fluorobenzenesulphonamide]: the inhibition at 1 µM is -28% in assay [1]; 83% at dopaminergic D3 receptor; -20% in assay [2]; 90% in assay [3]; 50% on dopaminergic D2 receptor; 92% in assay [4]. For the same compound, the inhibition at 1 µM in assay [5] turned out to be 19%. For the same compound, in the assay with adrenergic α1 receptor, the “α1 [%]” value is 91%.
Take `O=S(=O)(NCCCCN1CCN(c2cccc3c2OCCO3)CC1)c1ccc(F)c(F)c1` [Compound 389, N-[4-[4-(2,3-Dihydro-1,4-benzodioxin-5-yl)piperazin-1-yl]butyl]-3,4-difluorobenzenesulphonamide]: the inhibition at 1 µM in assay [1] stood at 44%; on dopaminergic D3 receptor, 85%; in assay [2] it was 19%; in assay [3], 93%; on dopaminergic D2 receptor it was 50%; in assay [4] it was 118%. Also, the inhibition at 1 µM in assay [5] came out at 56%. Moreover, the “α1 [%]” value in the assay on adrenergic α1 receptor was determined as 93%.
Turning to `O=S(=O)(NCCCCN1CCN(c2cccc3c2OCCO3)CC1)c1cccc(Cl)c1` [Compound 390, 3-Chloro-N-[4-[4-(2,3-dihydro-1,4-benzodioxin-5-yl)piperazin-1-yl]butyl]benzenesulphonamide], the inhibition at 1 µM is -15% in assay [1]; 81% at dopaminergic D3 receptor; 26% in assay [2]; 66% in assay [3]; 61% at dopaminergic D2 receptor; 101% in assay [4]. Also, in assay [5], the inhibition at 1 µM amounted to 59%. In addition, the “α1 [%]” value with adrenergic α1 receptor came to 73%.
Turning to `O=S(=O)(NCCCCN1CCN(c2cccc3c2OCCO3)CC1)c1cccc(Br)c1` [Compound 391, 3-Bromo-N-[4-[4-(2,3-dihydro-1,4-benzodioxin-5-yl)piperazin-1-yl]butyl]benzenesulphonamide], the inhibition at 1 µM in assay [1] was -28%; at dopaminergic D3 receptor, 85%; in assay [2] it was 19%; in assay [3] it was 92%; at dopaminergic D2 receptor, 76%; in assay [4], 97%. In addition, the inhibition at 1 µM in assay [5] was found to be 68%. For the same compound, in the assay with adrenergic α1 receptor, the “α1 [%]” value was 90%.
On to `O=S(=O)(NCCCCN1CCN(c2cccc3c2OCCO3)CC1)c1ccc(F)c(Cl)c1` [Compound 392, 3-Chloro-N-[4-[4-(2,3-dihydro-1,4-benzodioxin-5-yl)piperazin-1-yl]butyl]-4-fluorobenzenesulphonamide], for which the inhibition at 1 µM in assay [1] was -11%; on dopaminergic D3 receptor, 93%; in assay [2], 7%; in assay [3] it was 91%; on dopaminergic D2 receptor, 57%; in assay [4], 100%. The inhibition at 1 µM in assay [5] came out at 64%. Also, in the assay with adrenergic α1 receptor, the “α1 [%]” value is 99%.
Consider `O=S(=O)(NCCCCN1CCN(c2cccc3c2OCCO3)CC1)c1cccc(O)c1` [Compound 393, N-[4-[4-(2,3-Dihydro-1,4-benzodioxin-5-yl)piperazin-1-yl]butyl]-3-hydroxybenzenesulphonamide], for which the inhibition at 1 µM in assay [1] is -7%; at dopaminergic D3 receptor, 92%; in assay [2], 9%; in assay [3] it was 91%; at dopaminergic D2 receptor, 46%; in assay [4] it was 93%. The inhibition at 1 µM in assay [5] came out at 47%. Also, the “α1 [%]” value with adrenergic α1 receptor is recorded as 91%.
As for `COc1cccc(S(=O)(=O)NCCCCN2CCN(c3cccc4c3OCCO4)CC2)c1` [Compound 394, N-[4-[4-(2,3-Dihydro-1,4-benzodioxin-5-yl)piperazin-1-yl]butyl]-3-methoxybenzenesulphonamide], the inhibition at 1 µM was 12% in assay [1]; 86% at dopaminergic D3 receptor; 18% in assay [2]; 98% in assay [3]; 72% on dopaminergic D2 receptor; 95% in assay [4]. For the same compound, the inhibition at 1 µM in assay [5] amounted to 71%. The “α1 [%]” value with adrenergic α1 receptor is reported as 92%.
Take `Cc1cccc(S(=O)(=O)NCCCCN2CCN(c3cccc4c3OCCO4)CC2)c1` [Compound 395, N-[4-[4-(2,3-Dihydro-1,4-benzodioxin-5-yl)piperazin-1-yl]butyl]-3-methylbenzenesulphonamide]: the inhibition at 1 µM was 69% in assay [1]; 87% at dopaminergic D3 receptor; -35% in assay [2]; 83% in assay [3]; 61% on dopaminergic D2 receptor; 75% in assay [4]. Further, the inhibition at 1 µM in assay [5] was determined as 61%. Also, the “α1 [%]” value in the assay with adrenergic α1 receptor is 92%.
For the compound `O=S(=O)(NCCCCN1CCN(c2cccc3c2OCCO3)CC1)c1ccc(-c2ccccc2)cc1` [Compound 396, N-[4-[4-(2,3-Dihydro-1,4-benzodioxin-5-yl)piperazin-1-yl]butyl]-4-phenylbenzenesulphonamide], the inhibition at 1 µM in assay [1] is 16%; at dopaminergic D3 receptor it was 86%; in assay [2], 31%; in assay [3], 88%; at dopaminergic D2 receptor, 68%; in assay [4], 85%. The inhibition at 1 µM in assay [5] was 58%. Besides, in the assay with adrenergic α1 receptor, the “α1 [%]” value was 84%.
In the case of `O=S(=O)(NCCCCN1CCN(c2cccc3c2OCCO3)CC1)c1ccc(Cl)s1` [Compound 398, 5-Chloro-N-[4-[4-(2,3-dihydro-1,4-benzodioxin-5-yl)piperazin-1-yl]butyl]thiophene-2-sulphonamide], the inhibition at 1 µM is -7% in assay [1]; 90% on dopaminergic D3 receptor; 3% in assay [2]; 97% in assay [3]; 73% on dopaminergic D2 receptor; 107% in assay [4]. Besides, the inhibition at 1 µM in assay [5] was 38%. The “α1 [%]” value in the assay with adrenergic α1 receptor was 97%.
Consider `O=S(=O)(NCCCCN1CCN(c2cccc3c2OCCO3)CC1)c1cc2ccccc2s1` [Compound 399, N-[4-[4-(2,3-Dihydro-1,4-benzodioxin-5-yl)piperazin-1-yl]butyl]benzothiophene-2-sulphonamide], for which the inhibition at 1 µM is -22% in assay [1]; 92% on dopaminergic D3 receptor; 23% in assay [2]; 96% in assay [3]; 79% at dopaminergic D2 receptor; 99% in assay [4]. For the same compound, the inhibition at 1 µM in assay [5] was 82%. In addition, in the assay with adrenergic α1 receptor, the “α1 [%]” value was determined as 99%.
`O=S(=O)(NCCCCN1CCN(c2cccc3c2OCCO3)CC1)c1csc2ccccc12` [Compound 400, N-[4-[4-(2,3-Dihydro-1,4-benzodioxin-5-yl)piperazin-1-yl]butyl]benzothiophene-3-sulphonamide]: the inhibition at 1 µM in assay [1] is 30%; at dopaminergic D3 receptor, 88%; in assay [2] it was 9%; in assay [3], 95%; on dopaminergic D2 receptor it was 83%; in assay [4], 100%. For the same compound, the inhibition at 1 µM in assay [5] stood at 66%. The “α1 [%]” value in the assay on adrenergic α1 receptor was determined as 94%.
As for `O=S(=O)(NCCCCN1CCN(c2cccc3c2OCCO3)CC1)c1cc2ccc(Cl)cc2s1` [Compound 401, 6-Chloro-N-[4-[4-(2,3-dihydro-1,4-benzodioxin-5-yl)piperazin-1-yl]butyl]benzothiophene-2-sulphonamide], the inhibition at 1 µM in assay [1] was -8%; on dopaminergic D3 receptor, 95%; in assay [2], 27%; in assay [3], 91%; at dopaminergic D2 receptor, 84%; in assay [4], 103%. For the same compound, the inhibition at 1 µM in assay [5] came to 79%. Moreover, the “α1 [%]” value in the assay with adrenergic α1 receptor amounted to 90%.
With `O=S(=O)(NCCCCN1CCN(c2cccc3c2OCCO3)CC1)c1ccc2cn[nH]c2c1` [Compound 402, N-[4-[4-(2,3-Dihydro-1,4-benzodioxin-5-yl)piperazin-1-yl]butyl]-1H-indazole-6-sulphonamide], the inhibition at 1 µM in assay [1] was determined as 16%; on dopaminergic D3 receptor, 89%; in assay [2], 1%; in assay [3], 100%; at dopaminergic D2 receptor it was 68%; in assay [4], 102%. Further, in assay [5], the inhibition at 1 µM was found to be 76%. Also, the “α1 [%]” value in the assay on adrenergic α1 receptor is reported as 94%.
